Assay results from patent publication US8754242B2, “Herbicides” (Syngenta Crop Protection LLC, priority 2007, dated 2014).

Experiments:
Type in all cases: in vivo
[1] = test system: Alopecurus myosuroides (ALOMY); experiment: Test Example 1 pre-emergence herbicidal activity; settings: Alopecurus myosuroides, 480 h, rate 250 g/ha, evaluated 20 days later, read-out: Pre-emergence activity ALOMY (100=total damage to plant; 0=no damage to plant)
Protocol: (§1) Monocotyledonous and dicotyledonous test plants were sown in standard soil in pots. After cultivation for one day (pre-emergence) or after 10 days cultivation (post-emergence) under controlled conditions in a glasshouse, the plants were sprayed with an aqueous spray solution derived from the formulation of the technical active ingredient in 0.6 ml acetone and 45 ml formulation solution containing 10.6% Emulsogen EL (Registry number 61791-12-6), 42.2% N-methylpyrrolidone, 42.2% dipropylene glycol monomethyl ether (Registry number 34590-94-8) and 0.2% X-77 (Registry number 11097-66-8). The test plants were then grown in a greenhouse under optimum conditions until, 15 days later for post-emergence and 20 days for pre-emergence, the test was evaluated (100=total damage to plant; 0=no damage to plant).
(§2) Alopecurus myosuroides (ALOMY), Avena fatua (AVEFA), Lolium perenne (LOLPE), Setaria faberi (SETFA), Digitaria sanguinalis (DIGSA), Echinochloa crus-galli (ECHCG)

[2] = test system: Avena fatua (AVEFA); experiment: Test Example 1 pre-emergence herbicidal activity; settings: Avena fatua, 480 h, rate 250 g/ha, evaluated 20 days later, read-out: Pre-emergence activity AVEFA (100=total damage to plant; 0=no damage to plant)
Protocol: as §1, §2

[3] = test system: Digitaria sanguinalis (DIGSA); experiment: Test Example 1 pre-emergence herbicidal activity; settings: Digitaria sanguinalis, 480 h, rate 250 g/ha, evaluated 20 days later, read-out: Pre-emergence activity DIGSA (100=total damage to plant; 0=no damage to plant)
Protocol: as §1, §2

[4] = test system: Echinochloa crus-galli (ECHCG); experiment: Test Example 1 pre-emergence herbicidal activity; settings: Echinochloa crus-galli, 480 h, rate 250 g/ha, evaluated 20 days later, read-out: Pre-emergence activity ECHCG (100=total damage to plant; 0=no damage to plant)
Protocol: as §1, §2

[5] = test system: Lolium perenne (LOLPE); experiment: Test Example 1 pre-emergence herbicidal activity; settings: Lolium perenne, 480 h, rate 250 g/ha, evaluated 20 days later, read-out: Pre-emergence activity LOLPE (100=total damage to plant; 0=no damage to plant)
Protocol: as §1, §2

[6] = test system: Setaria faberi (SETFA); experiment: Test Example 1 pre-emergence herbicidal activity; settings: Setaria faberi, 480 h, rate 250 g/ha, evaluated 20 days later, read-out: Pre-emergence activity SETFA (100=total damage to plant; 0=no damage to plant)
Protocol: as §1, §2

[7] = test system: Alopecurus myosuroides (ALOMY); experiment: Test Example 1 post-emergence herbicidal activity; settings: 360 h, rate 125 g/ha, evaluated 15 days later, read-out: Post-emergence activity ALOMY (100=total damage to plant; 0=no damage to plant)
Protocol: as §1, §2

[8] = test system: Avena fatua (AVEFA); experiment: Test Example 1 post-emergence herbicidal activity; settings: 360 h, rate 125 g/ha, evaluated 15 days later, read-out: Post-emergence activity AVEFA (100=total damage to plant; 0=no damage to plant)
Protocol: as §1, §2

[9] = test system: Digitaria sanguinalis (DIGSA); experiment: Test Example 1 post-emergence herbicidal activity; settings: 360 h, rate 125 g/ha, evaluated 15 days later, read-out: Post-emergence activity DIGSA (100=total damage to plant; 0=no damage to plant)
Protocol: as §1, §2

[10] = test system: Echinochloa crus-galli (ECHCG); experiment: Test Example 1 post-emergence herbicidal activity; settings: 360 h, rate 125 g/ha, evaluated 15 days later, read-out: Post-emergence activity ECHCG (100=total damage to plant; 0=no damage to plant)
Protocol: as §1, §2

[11] = test system: Lolium perenne (LOLPE); experiment: Test Example 1 post-emergence herbicidal activity; settings: 360 h, rate 125 g/ha, evaluated 15 days later, read-out: Post-emergence activity LOLPE (100=total damage to plant; 0=no damage to plant)
Protocol: as §1, §2

[12] = test system: Setaria faberi (SETFA); experiment: Test Example 1 post-emergence herbicidal activity; settings: 360 h, rate 125 g/ha, evaluated 15 days later, read-out: Post-emergence activity SETFA (100=total damage to plant; 0=no damage to plant)
Protocol: as §1, §2

| Compound | pest or weed control at 250 g/ha [1] [%] | pest or weed control at 250 g/ha [2] [%] | pest or weed control at 250 g/ha [3] [%] | pest or weed control at 250 g/ha [4] [%] | pest or weed control at 250 g/ha [5] [%] | pest or weed control at 250 g/ha [6] [%] | pest or weed control at 125 g/ha [7] [%] | pest or weed control at 125 g/ha [8] [%] | pest or weed control at 125 g/ha [9] [%] | pest or weed control at 125 g/ha [10] [%] | pest or weed control at 125 g/ha [11] [%] | pest or weed control at 125 g/ha [12] [%] |
| --- | --- | --- | --- | --- | --- | --- | --- | --- | --- | --- | --- | --- |
| CCc1cc(C)cc(CC)c1C1=C(OC(=O)CC(C)C)[C@H]2[C@@H](C1=O)[C@@H]1CC[C@H]2O1 [Example P19] | 100 | 100 | 100 | 100 | 100 | 100 | 100 | 100 | 100 | 100 | 100 | 100 |
| Cc1cc(C)c(C2=C(O)[C@@H]3[C@@H]4O[C@@H](C[C@H]4c4ccc(F)cc4)[C@@H]3C2=O)c(C)c1 (racemic) [Example T70] | 80 | 50 | 90 | 100 | 100 | 90 | 90 | 70 | 70 | 80 | 70 | 70 |
| CCC(=O)OC[C@]12C=C[C@H](O1)[C@@H]1C(=O)C(c3c(C)cc(C)cc3C)=C(O)[C@@H]12 [Example T59] | 10 | 20 | 50 | 30 | 30 | 40 | 50 | 40 | 80 | 80 | 0 | 70 |
| CCC(C)C(=O)OC1=C(c2c(C)cc(C)cc2C)C(=O)[C@@H]2[C@H]1[C@H]1CC[C@@H]2O1 (stereo partly drawn) [Example P9] | 100 | 100 | 90 | 80 | 100 | 80 | 100 | 90 | 80 | 90 | 100 | 80 |
| CCCCCCC(=O)OC1=C(c2c(CC)cc(C)cc2CC)C(=O)[C@@H]2[C@H]1[C@H]1CC[C@@H]2O1 (racemic) [Example P20] | 100 | 80 | 100 | 100 | 100 | 100 | 100 | 100 | 80 | 100 | 100 | 90 |
| Cc1cc(C)c(C2=C(O)[C@@H]3[C@@H]4O[C@@H](C[C@H]4c4cc(C(F)(F)F)nc(C(F)(F)F)c4)[C@@H]3C2=O)c(C)c1 (racemic) [Example T199] | 0 | 50 | 100 | 80 | 60 | 60 | 100 | 100 | 100 | 100 | 60 | 80 |
